Reference: patent US9296745B2, “Diacylglycerol acyltransferase 2 inhibitors” (Pfizer Inc., priority 2012, dated 2016)
Read-outs that look alike come from different tables or passages of the source.

Molecular target: Human DGAT2 (hDGAT2) (Homo sapiens (Human), UniProt Q96PD7)
Assay: In vitro DGAT2 assay, IC50 determination with hDGAT2 membrane fraction
Assay type: biochemical
Conditions: read-out: DGAT2 IC50
Procedure, shortened: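 CHAPS-solubilized membrane fraction of FLAG-tagged hDGAT2 from baculovirus-infected SF9 cells (0.01 mg/mL) in 100 mM Hepes-NaOH pH 7.4, 20 mM MgCl2, 200 nM methyl arachidonyl fluorophosphonate; compounds pre-incubated 20 min with 0.04% BSA. Reaction 40 min at room temperature, stopped with H3PO4. [^14C]tridecanoylglycerol in organic phase counted; 11-point geometric mean IC50.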

[1] = geometric mean, background for complete inhibition of DGAT2 obtained with 50 μM (1R,2R)-2-({3′-Fluoro-4′-[(6-fluoro-1,3-benzothiazol-2-yl)amino]-1,1′-biphenyl-4-yl}carbonyl)cyclopentanecarboxylic acid

Sequence of Human DGAT2 (hDGAT2) (Q96PD7 whole entry): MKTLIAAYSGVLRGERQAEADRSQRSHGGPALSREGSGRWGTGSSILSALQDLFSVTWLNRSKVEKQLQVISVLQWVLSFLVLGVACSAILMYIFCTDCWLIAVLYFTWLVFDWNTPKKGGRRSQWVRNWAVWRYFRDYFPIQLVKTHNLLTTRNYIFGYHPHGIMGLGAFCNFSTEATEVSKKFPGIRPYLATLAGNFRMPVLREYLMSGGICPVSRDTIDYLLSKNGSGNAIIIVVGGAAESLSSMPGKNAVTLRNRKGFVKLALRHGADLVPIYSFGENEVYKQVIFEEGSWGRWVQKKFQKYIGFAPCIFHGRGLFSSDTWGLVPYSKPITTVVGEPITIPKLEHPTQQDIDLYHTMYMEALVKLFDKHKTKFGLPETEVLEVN

| SMILES | IC50 [1] [nM] | IC50 [nM] |
| --- | --- | --- |
| COc1cc(C(=O)O)cc(-c2nc3ccc(N4CCC[C@@H](C(=O)N5CCCC5)C4)nc3[nH]2)n1 [Example 126, (R)-2-Methoxy-6-(5-(3-(pyrrolidine-1-carbonyl)piperidin-1-yl)-3H-imidazo[4,5-b]pyridin-2-yl)isonicotinic acid] | 3470 |  |
| CS(=O)(=O)c1cccc(-c2nc3ccc(N4CCC[C@@H](C(=O)N5CCCC5)C4)nc3[nH]2)c1 [Example 127, (R)-(1-(2-(3-(Methylsulfonyl)phenyl)-3H-imidazo[4,5-b]pyridin-5-yl)piperidin-3-yl)(pyrrolidin-1-yl)methanone] | 235 |  |
| CCOC(=O)CCc1cccc(-c2nc3ccc(N4CCC[C@@H](C(=O)N5CCCC5)C4)nc3[nH]2)c1 [Example 128, (R)-Ethyl 3-(3-(5-(3-(pyrrolidine-1-carbonyl)piperidin-1-yl)-3H-imidazo[4,5-b]pyridin-2-yl)phenyl)propanoate] | 7.16 |  |
| CCN(CC)C(=O)c1nc2ccc(N3CCC[C@@H](C(=O)N4CCCC4)C3)nc2[nH]1 [Example 129, (R)—N,N-Diethyl-5-(3-(pyrrolidine-1-carbonyl)piperidin-1-yl)-3H-imidazo[4,5-b]pyridine-2-carboxamide] | 4540 |  |
| O=C(Nc1ccccn1)c1nc2ccc(N3CCC[C@@H](C(=O)N4CCCC4)C3)nc2[nH]1 [Example 130, (R)—N-(Pyridin-2-yl)-5-(3-(pyrrolidine-1-carbonyl)piperidin-1-yl)-3H-imidazo[4,5-b]pyridine-2-carboxamide] | 1900 |  |
| O=C([C@@H]1CCCN(c2ccc3nc(-c4ccnc(C5CC5)n4)[nH]c3n2)C1)N1CCC(F)(F)C1 [Example 131, (R)-(1-(2-(2-Cyclopropylpyrimidin-4-yl)-3H-imidazo[4,5-b]pyridin-5-yl)piperidin-3-yl)(3,3-difluoropyrrolidin-1-yl)methanone] | 34.4 |  |
| O=C([C@@H]1CCCN(c2ccc3nc(-c4ccnc(C5CC5)n4)[nH]c3n2)C1)N1CC[C@H](O)C1 [Example 132, ((R)-1-(2-(2-Cyclopropylpyrimidin-4-yl)-3H-imidazo[4,5-b]pyridin-5-yl)piperidin-3-yl)((S)-3-hydroxypyrrolidin-1-yl)methanone] | 695 |  |
| c1cc(-c2nc3ccc(N4CCCC(c5ncc6n5CCC6)C4)nc3[nH]2)nc(C2CC2)n1 (stereo not shown) [Example 133, 2-(2-Cyclopropylpyrimidin-4-yl)-5-(3-(6,7-dihydro-5H-pyrrolo[1,2-c]imidazol-3-yl)piperidin-1-yl)-3H-imidazo[4,5-b]pyridine] | 252 |  |
| c1cc(-c2nc3ccc(N4CCC[C@@H](c5ncc6n5CCC6)C4)nc3[nH]2)nc(C2CC2)n1 [Example 134, (R)-2-(2-Cyclopropylpyrimidin-4-yl)-5-(3-(6,7-dihydro-5H-pyrrolo[1,2-c]imidazol-3-yl)piperidin-1-yl)-3H-imidazo[4,5-b]pyridine] | 210 |  |
| c1cc(-c2nc3ccc(N4CCC[C@H](c5ncc6n5CCC6)C4)nc3[nH]2)nc(C2CC2)n1 [Example 135, (S)-2-(2-cyclopropylpyrimidin-4-yl)-5-(3-(6,7-dihydro-5H-pyrrolo[1,2-c]imidazol-3-yl)piperidin-1-yl)-3H-imidazo[4,5-b]pyridine] | 4240 |  |
| O=C([C@@H]1CCCN(c2nc3[nH]c(-c4ccnc(C5CC5)n4)nc3cc2F)C1)N1CCCC1 [Example 136, (R)-(1-(2-(2-Cyclopropylpyrimidin-4-yl)-6-fluoro-3H-imidazo[4,5-b]pyridin-5-yl)piperidin-3-yl)(pyrrolidin-1-yl)methanone] | 6.32 |  |
| O=C([C@@H]1CCCN(c2ccc3nc(C4(N5CCOCC5=O)CC4)[nH]c3n2)C1)N1CCCC1 [Example 137, (R)-4-(1-(5-(3-(Pyrrolidine-1-carbonyl)piperidin-1-yl)-3H-imidazo[4,5-b]pyridin-2-yl)cyclopropyl)morpholin-3-one] | 1280 |  |
| O=C([C@@H]1CCCN(c2cnc3nc(-c4ccnc(C5CC5)n4)[nH]c3n2)C1)N1CCCC1 [Example 138, (R)-(1-(2-(2-Cyclopropylpyrimidin-4-yl)-1H-imidazo[4,5-b]pyrazin-6-yl)piperidin-3-yl)(pyrrolidin-1-yl)methanone] | 71.6 |  |
| O=C([C@@H]1CCCN(c2ccc3nc(-c4cccc(C5(O)CC5)n4)[nH]c3n2)C1)N1CCCC1 [Example 139, (R)-(1-(2-(6-(1-Hydroxycyclopropyl)pyridin-2-yl)-3H-imidazo[4,5-b]pyridin-5-yl)piperidin-3-yl)(pyrrolidin-1-yl)methanone] | 62.3 |  |
| CC(C)(O)c1csc(-c2nc3ccc(N4CCC[C@@H](C(=O)N5CCCC5)C4)nc3[nH]2)n1 [Example 140, (R)-(1-(2-(4-(2-Hydroxypropan-2-yl)thiazol-2-yl)-3H-imidazo[4,5-b]pyridin-5-yl)piperidin-3-yl)(pyrrolidin-1-yl)methanone] | 207 |  |
| O=C([C@H]1CN(c2ccc3nc(-c4cccc(C5CC5)n4)[nH]c3n2)CCO1)N1CCCC1 [Example 142, (R)-(4-(2-(6-Cyclopropylpyridin-2-yl)-3H-imidazo[4,5-b]pyridin-5-yl)morpholin-2-yl)(pyrrolidin-1-yl)methanone] | 24.8 |  |

| SMILES | IC50 [1] [nM] | IC50 [nM] |
| --- | --- | --- |
| O=C([C@H]1CN(c2ccc3nc(-c4cccc(C(F)(F)F)n4)[nH]c3n2)CCO1)N1CCCC1 [Example 143, (R)-Pyrrolidin-1-yl(4-(2-(6-(trifluoromethyl)pyridin-2-yl)-3H-imidazo[4,5-b]pyridin-5-yl)morpholin-2-yl)methanone] | 511 |  |
| FC(F)Oc1cccc(-c2nc3ccc(N4CCO[C@H](c5ccccn5)C4)nc3[nH]2)c1 [Example 145, (S)-4-(2-(3-(difluoromethoxy)phenyl)-3H-imidazo[4,5-b]pyridin-5-yl)-2-(pyridin-2-yl)morpholine] | 411 |  |
| O=C([C@H]1CN(c2ccc3nc(-c4cncc(C5CC5)n4)[nH]c3n2)CCO1)N1CCCC1 [Example 146, (R)-(4-(2-(6-Cyclopropylpyrazin-2-yl)-3H-imidazo[4,5-b]pyridin-5-yl)morpholin-2-yl)(pyrrolidin-1-yl)methanone] | 401 |  |
| O=C([C@@H]1CCCN(c2ccc3nc(-c4ccnc(C5CCC5)n4)[nH]c3n2)C1)N1CCCC1 [Example 147, (R)-(1-(2-(2-Cyclobutylpyrimidin-4-yl)-3H-imidazo[4,5-b]pyridin-5-yl)piperidin-3-yl)(pyrrolidin-1-yl)methanone] | 9.21 |  |
| O=C([C@@H]1CCCN(c2ccc3nc(-c4nccc(C5CC5)n4)[nH]c3n2)C1)N1CCOCC1 [Example 149, (R)-(1-(2-(4-Cyclopropylpyrimidin-2-yl)-3H-imidazo[4,5-b]pyridin-5-yl)piperidin-3-yl)(morpholino)methanone] | 766 |  |
| CN(C)C(=O)[C@@H]1CCCN(c2ccc3nc(-c4cccc(C5CC5)n4)[nH]c3n2)C1 [Example 150, (R)-1-(2-(6-Cyclopropylpyridin-2-yl)-3H-imidazo[4,5-b]pyridin-5-yl)-N,N-dimethylpiperidine-3-carboxamide] | 47.3 |  |
| Clc1cccc(-c2nc3ccc(N4CCO[C@@H](c5ccccn5)C4)nc3[nH]2)c1 [Example 152, (R)-4-(2-(3-chlorophenyl)-3H-imidazo[4,5-b]pyridin-5-yl)-2-(pyridin-2-yl)morpholine] |  | 285 |
| O=C([C@@H]1CCCN(c2ccc3nc(-c4cccc(C5CC5)n4)[nH]c3n2)C1)N1CCOCC1 [Example 153, (R)-(1-(2-(6-Cyclopropylpyridin-2-yl)-3H-imidazo[4,5-b]pyridin-5-yl)piperidin-3-yl)(morpholino)methanone] |  | 48.1 |
| O=C([C@@H]1CCCN(c2ccc3nc(-c4cccc(Cl)c4)[nH]c3n2)C1)N1CCOCC1 [Example 154, (R)-(1-(2-(3-Chlorophenyl)-3H-imidazo[4,5-b]pyridin-5-yl)piperidin-3-yl)(morpholino)methanone] |  | 40.5 |
| O=C([C@@H]1CCCN(c2ccc3nc(-c4cccc(OC(F)F)c4)[nH]c3n2)C1)N1CCOCC1 [Example 155, (R)-(1-(2-(3-(Difluoromethoxy)phenyl)-3H-imidazo[4,5-b]pyridin-5-yl)piperidin-3-yl)(morpholino)methanone] |  | 35.6 |
| N#CC1(c2cccc(-c3nc4ccc(N5CCC[C@@H](C(=O)N6CCCC6)C5)nc4[nH]3)n2)CC1 [Example 156, (R)-1-(6-(5-(3-(Pyrrolidine-1-carbonyl)piperidin-1-yl)-1H-imidazo[4,5-b]pyridin-2-yl)pyridin-2-yl)cyclopropanecarbonitrile] | 275 |  |
| CC(c1ccccc1)c1nc2ccc(N3CCC[C@@H](C(=O)N4CCCC4)C3)nc2[nH]1 (stereo partly drawn) [Example 157, (R)-(1-(2-(1-Phenylethyl)-3H-imidazo[4,5-b]pyridin-5-yl)piperidin-3-yl)(pyrrolidin-1-yl)methanone] | 211 |  |
| O=C([C@@H]1CCCN(c2ccc3nc(-c4cccc(C5CC5)n4)[nH]c3n2)C1)N1CC=CC1 [Example 158, (R)-(1-(2-(6-Cyclopropylpyridin-2-yl)-3H-imidazo[4,5-b]pyridin-5-yl)piperidin-3-yl)(2,5-dihydro-1H-pyrrol-1-yl)methanone] | 3.58 |  |
| O=C([C@@H]1CCCN(c2ncc3nc(-c4ccnc(C5CC5)n4)[nH]c3n2)C1)N1CCCC1 [Example 159, (R)-(1-(8-(2-Cyclopropylpyrimidin-4-yl)-9H-purin-2-yl)piperidin-3-yl)(pyrrolidin-1-yl)methanone] | 28.2 |  |
| O=C([C@@H]1CCCN(c2ccc3nc(C4(c5ccc[n+]([O-])c5)CC4)[nH]c3n2)C1)N1CCCC1 [Example 160, (R)-3-(1-(5-(3-(Pyrrolidine-1-carbonyl)piperidin-1-yl)-3H-imidazo[4,5-b]pyridin-2-yl)cyclopropyl)pyridine 1-oxide] |  | 789 |
